In article PMC5826148, “Whole-Cell Screen of Fragment Library Identifies Gut Microbiota Metabolite Indole Propionic Acid as Antitubercular” (Antimicrobial Agents and Chemotherapy, 2018):
In brackets after ≈: the same amount, converted by molar mass. Read-outs that look alike come from different tables or passages of the source.

Key:
[1] = system: M. tuberculosis; assay: Growth inhibition in acidic medium (pH 6.2); type: cell-based, Mycobacterium tuberculosis
[2] = Cytotoxicity assay, HepG2 cells (CellTiter 96 AQueous One); settings: human, HepG2 cells
[3] = system: M. bovis BCG Pasteur; assay: microbe, parasite or virus in culture; type: cell-based; settings: Mycobacterium tuberculosis variant bovis BCG, BCG, read-out: Antibacterial activity (MIC50) M. bovis BCG
[4] = system: M. tuberculosis H37Rv; assay: Bactericidal activity, CFU enumeration on agar after treatment; type: cell-based, Mycobacterium tuberculosis; settings: Mycobacterium tuberculosis, H37RV, read-out: Bactericidal activity (log reduction) at 1 mM
[5] = system: M. tuberculosis H37Rv; assay: M. tuberculosis growth inhibition dose-response (MIC50), turbidity readout; type: cell-based, Mycobacterium tuberculosis; settings: Mycobacterium tuberculosis, 240 h, read-out: Antibacterial activity (MIC50) M. tuberculosis
[6] = system: M. smegmatis; assay: Spectrum of activity: M. smegmatis growth inhibition; type: cell-based; settings: Mycolicibacterium smegmatis, 24 h, read-out: Antibacterial activity (MIC50) M. smegmatis
[7] = system: M. abscessus; assay: Spectrum of activity: M. abscessus growth inhibition; type: cell-based; settings: Mycobacteroides abscessus, 72 h, read-out: Antibacterial activity (MIC50) M. abscessus
[8] = system: Staphylococcus aureus; assay: Spectrum of activity: S. aureus growth inhibition; type: cell-based; settings: Staphylococcus aureus, read-out: Antibacterial activity (MIC50) S. aureus
[9] = system: M. avium; assay: Spectrum of activity: M. avium growth inhibition; type: cell-based; settings: Mycobacterium avium, 96 h, read-out: Antibacterial activity (MIC50) M. avium
[10] = Cytotoxicity assay, THP-1 cells (CellTiter 96 AQueous One); settings: human
[11] = system: Escherichia coli; assay: Spectrum of activity: E. coli growth inhibition; type: cell-based; settings: Escherichia coli, read-out: Antibacterial activity (MIC50) E. coli
[12] = system: human red blood cells (RBCs); assay: Red blood cell lysis assay; settings: hemolysis
[13] = Mycobacterium tuberculosis, pH 6.2; read-out: Activity (MIC50) in acidic medium (pH 6.2)
[14] = M. tuberculosis, 1 mM, log CFU/ml reduction from initial inoculum
[15] = Mycobacterium tuberculosis, pH 6.2, read-out: Activity (MIC50) in acidic medium (pH 6.2)

Row | SMILES | MIC50 [1, 13] [µM] | CC50 at 24 h [2] [µM] | MIC50 [3] [µM] | log reduction at 1000 µM [4, 14] | MIC50 ([5]; H37Rv, 10 days) [µM] | MIC50 ([6]; 1 day) [µM] | MIC50 ([7]; 3 days) [µM] | MIC50 ([8]; LB medium, overnight) [µM] | MIC50 ([9]; 4 days) [µM] | CC50 at 24 h [10] [µM] | MIC50 ([11]; LB medium, overnight) [µM] | RBCs HC50 [12] | MIC50 [1, 15] [µM] | log reduction at 1000 µM [4] | MIC50 ([5]; H37RV) [µM] | MIC50 [6] [µM] | MIC50 [7] [µM] | MIC50 [8] [µM] | MIC50 [9] [µM] | MIC50 [11] [µM]
1 | O=c1cc(C(F)(F)F)c2ccc(O)cc2o1 [Fragment F2, 7-Hydroxy-4-(trifluoromethyl)-2H-chromen-2-one] | 179 (≈ 41.2 µg/mL) | 987 | 329 (≈ 75.7 µg/mL) | 1.1 | 213 (≈ 49 µg/mL) | 476 (≈ 110 µg/mL) | > 500 | 198 (≈ 45.6 µg/mL) | > 500 | 879 | 432 (≈ 99.4 µg/mL) | >1,000 μM | – | – | – | – | – | – | – | –
2 | Cc1ncc(C(N)=S)[nH]1 [Fragment F3, 2-Methyl-1H-imidazole-4-carbothioamide] | 98 (≈ 13.8 µg/mL) | > 1000 | 134 (≈ 18.9 µg/mL) | 1.87 | 105 (≈ 14.8 µg/mL) | > 500 | 304 (≈ 42.9 µg/mL) | > 500 | 198 (≈ 28 µg/mL) | 850 | > 500 | >1,000 μM | – | – | – | – | – | – | – | –
3 | COC(=O)c1cc2ccccc2cn1 [Fragment F4, Methyl isoquinoline-3-carboxylate] | 158 (≈ 29.6 µg/mL) | > 1000 | 143 (≈ 26.8 µg/mL) | 1.98 | 175 (≈ 32.8 µg/mL) | 389 (≈ 72.8 µg/mL) | > 500 | > 500 | 344 (≈ 64.4 µg/mL) | > 1000 | > 500 | >1,000 μM | – | – | – | – | – | – | – | –
4 | Nc1ccc2oc3c(c2c1)CCCC3 [Fragment F5, 6,7,8,9-Tetrahydrodibenzo [b,d]furan-2-amine] | 62 (≈ 11.6 µg/mL) | > 1000 | 488 (≈ 91.4 µg/mL) | 1.11 | 245 (≈ 45.9 µg/mL) | > 500 | > 500 | > 500 | > 500 | > 1000 | > 500 | >1,000 μM | – | – | – | – | – | – | – | –
5 | c1ccc2c(c1)[nH]c1cnccc12 [Fragment F6, 9H-Pyrido[3,4-b]indole] | – | – | 205 (≈ 34.5 µg/mL) | – | – | – | – | – | – | – | – | 787 µM | 113 (≈ 19 µg/mL) | 0.43 | 97 (≈ 16.3 µg/mL) | 121 (≈ 20.4 µg/mL) | 254 (≈ 42.7 µg/mL) | > 500 | 302 (≈ 50.8 µg/mL) | 302 (≈ 50.8 µg/mL)
6 | Cc1oc(-c2ccc(Cl)cc2)cc1C(=O)N(C)C [Fragment F8, 5-(4-Chlorophenyl)-N,N,2-trimethyl-3-furamide] | 93 (≈ 24.5 µg/mL) | 589 | 189 (≈ 49.8 µg/mL) | 1.44 | 135 (≈ 35.6 µg/mL) | 233 (≈ 61.4 µg/mL) | 322 (≈ 84.9 µg/mL) | > 500 | 169 (≈ 44.6 µg/mL) | 234 | > 500 | 433 µM | – | – | – | – | – | – | – | –
7 | COC(=O)c1sc2ccccc2c1O [Fragment F9, Methyl 3-hydroxy-1-benzo thiophene-2-carboxylate] | 240 (≈ 50 µg/mL) | – | > 500 | 2.09 | 142 (≈ 29.6 µg/mL) | > 500 | > 500 | 217 (≈ 45.2 µg/mL) | > 500 | – | > 500 | >1,000 μM | – | – | – | – | – | – | – | –
8 | O=C(O)c1ccc(-c2ccccc2)s1 [Fragment F10, 5-Phenylthiophene-2-carboxylic acid] | 97 (≈ 19.8 µg/mL) | 612 | 397 (≈ 81.1 µg/mL) | 1.46 | 186 (≈ 38 µg/mL) | 345 (≈ 70.5 µg/mL) | 247 (≈ 50.4 µg/mL) | > 500 | > 500 | 544 | > 500 | >1,000 μM | – | – | – | – | – | – | – | –
9 | CSc1cc(-c2ccc(F)cc2)n[nH]1 [Fragment F11, 3-(4-Fluorophenyl)-5-(methylsulfanyl)-1H-pyrazole] | 140 (≈ 29.2 µg/mL) | 945 | 308 (≈ 64.1 µg/mL) | 3.06 | 195 (≈ 40.6 µg/mL) | 398 (≈ 82.9 µg/mL) | 271 (≈ 56.4 µg/mL) | > 500 | 498 (≈ 104 µg/mL) | 765 | 344 (≈ 71.6 µg/mL) | >1,000 μM | – | – | – | – | – | – | – | –
10 | Clc1ccc2nc(N3CCCNCC3)sc2c1 [Fragment F12, 6-Chloro-2-(1,4-diazepan-1-yl)-1,3-benzothiazole] | 104 (≈ 27.8 µg/mL) | 187 | 137 (≈ 36.7 µg/mL) | 2.8 | 198 (≈ 53 µg/mL) | 221 (≈ 59.2 µg/mL) | 351 (≈ 94 µg/mL) | > 500 | 157 (≈ 42 µg/mL) | 124 | 324 (≈ 86.8 µg/mL) | >1,000 μM | – | – | – | – | – | – | – | –
11 | O=C(O)c1cc2ccccc2cn1 [Fragment F14, Isoquinoline-3-carboxylic acid] | – | – | 193 (≈ 33.4 µg/mL) | – | – | – | – | – | – | – | – | >1,000 μM | 87 (≈ 15.1 µg/mL) | 1.97 | 235 (≈ 40.7 µg/mL) | 176 (≈ 30.5 µg/mL) | > 500 | 304 (≈ 52.6 µg/mL) | 473 (≈ 81.9 µg/mL) | 193 (≈ 33.4 µg/mL)
12 | Cc1n[nH]c(C)c1Oc1ccc(Cl)cc1 [Fragment F15, 4-(4-Chlorophenoxy)-3,5-dimethyl-1H-pyrazole] | 157 (≈ 35 µg/mL) | 676 | 156 (≈ 34.7 µg/mL) | 2.43 | 235 (≈ 52.3 µg/mL) | 198 (≈ 44.1 µg/mL) | 256 (≈ 57 µg/mL) | 79 (≈ 17.6 µg/mL) | 174 (≈ 38.7 µg/mL) | 345 | > 500 | 453 µM | – | – | – | – | – | – | – | –
13 | Cc1cc(C(=O)O)c(C)n1Cc1cccs1 [Fragment F16, 2,5-Dimethyl-1-(2-thienylmethyl)-1H-pyrrole-3-carboxylic acid] | 345 (≈ 81.2 µg/mL) | 766 | > 500 | 1.89 | 247 (≈ 58.1 µg/mL) | > 500 | > 500 | > 500 | > 500 | 724 | > 500 | >1,000 μM | – | – | – | – | – | – | – | –
14 | NCc1cccc(N2CCCCC2)n1 [Fragment F17, [6-(Piperidin-1-yl)pyridin-2-yl]methanamine] | 245 (≈ 46.9 µg/mL) | 455 | 345 (≈ 66 µg/mL) | 3.07 | 250 (≈ 47.8 µg/mL) | > 500 | > 500 | 104 (≈ 19.9 µg/mL) | 271 (≈ 51.8 µg/mL) | 489 | > 500 | >1,000 μM | – | – | – | – | – | – | – | –
15 | Cc1ccc2c(c1)N(CCO)C(C)(C)CC2C.O (stereo not shown) [Fragment F18, 2-(2,2,4,7-Tetramethyl-1,2,3,4-tetrahydroquinolin-1-yl)ethan-1-ol hydrate] | – | – | 87 | – | – | – | – | – | – | – | – | 471 µM | 86 | 1.67 | 268 | 205 | 247 | 189 | 198 | > 500
16 | CCOC(=O)c1c(N)sc(C)c1-c1ccccc1 [Fragment F19, Ethyl 2-amino-5-methyl-4-phenylthiophene-3-carboxylate] | 117 (≈ 30.6 µg/mL) | 233 | 267 (≈ 69.8 µg/mL) | 1.98 | 270 (≈ 70.6 µg/mL) | 491 (≈ 128 µg/mL) | 206 (≈ 53.8 µg/mL) | 344 (≈ 89.9 µg/mL) | 214 (≈ 55.9 µg/mL) | 247 | > 500 | 453 µM | – | – | – | – | – | – | – | –
